{"source": "paper PMC4372144", "about": "(Nature communications, 2015)", "test_system": "Type II collagenase", "assay": "Peptide cleavage kinetics, modified fluorescamine assay, Type II collagenase", "assay_type": "biochemical", "details": "1 U ml^−1 Type II collagenase, pH 7.4, 37°C, duration of the assay 9 hours, fluorescamine read-out", "data": [{"substance": "GCEE-NGGSGGSN-GGGH-Methacrylate [Non-degradable peptide]", "values": [{"measurement": "protease-mediated cleavage of peptide", "value": "not detectable"}]}]}
